The results in this text go back to ChEMBL document CHEMBL3865852, “PAR2 Modulators Derived from GB88” (ACS Med Chem Lett, 2016).

Data set [1] concerns the target Proteinase-activated receptor 2 (Homo sapiens) (UniProt P55085). Description: Antagonist activity at PAR2 in human HT-29 cells assessed as inhibition of 2f-LIGRLO-NH2-stimulated intracellular calcium release at 10 uM preincubated for 30 mins followed by 2f-LIGRLO-NH2 stimulation measured for 60 secs by Fluo-3 AM dye based FLIPR assay relative to control. It counts as functional, cell-based.

Data set [2] deals with T1, Proteinase-activated receptor 2 (Homo sapiens, UniProt P55085).
T1 sequence (P55085 whole entry): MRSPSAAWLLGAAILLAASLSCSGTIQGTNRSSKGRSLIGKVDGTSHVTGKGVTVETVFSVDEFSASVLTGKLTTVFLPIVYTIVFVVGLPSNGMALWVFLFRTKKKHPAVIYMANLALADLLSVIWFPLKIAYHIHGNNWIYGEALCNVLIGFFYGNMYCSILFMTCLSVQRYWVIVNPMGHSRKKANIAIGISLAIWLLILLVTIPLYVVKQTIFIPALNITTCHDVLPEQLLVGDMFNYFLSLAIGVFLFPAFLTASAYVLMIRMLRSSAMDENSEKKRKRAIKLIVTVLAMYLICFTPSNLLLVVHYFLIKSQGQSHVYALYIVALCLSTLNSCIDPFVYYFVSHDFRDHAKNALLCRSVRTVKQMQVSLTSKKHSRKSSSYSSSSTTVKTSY
Description: Antagonist activity at PAR2 in human HT-29 cells assessed as inhibition of 2f-LIGRLO-NH2-stimulated intracellular calcium release preincubated for 30 mins followed by 2f-LIGRLO-NH2 stimulation measured for 60 sec by Fluo-3 AM dye based FLIPR assay. It counts as functional, cell-based. A general note: Calcium flux is commonly read through the fluorescence of an indicator in the cells.

The target of data set [3] is Proteinase-activated receptor 2 (Homo sapiens) (UniProt P55085). Description: Agonist activity at PAR2 in human HT-29 cells assessed as increase in intracellular calcium release at 10 uM incubated for 30 mins measured for 60 secs by Fluo-3 AM dye based FLIPR assay relative to 2f-LIGRLO-NH2. It counts as functional, cell-based.
Data set [4] can be described thus: Stability in Wistar rat plasma at 10 uM measured up to 3 hrs by LC/MS/MS analysis. It counts as ADME, cell-free. To be noted: read-out: Stability.
The nature of data set [5]: Elimination half life in Wistar rat liver homogenate at 10 uM by LC/MS/MS analysis. Conditions: read-out: beta t1/2. It counts as ADME, tissue-based.
In data set [6] the target is T1, Proteinase-activated receptor 2. Briefly: Antagonist activity at PAR2 in human HT-29 cells assessed as inhibition of endogenous trypsin-stimulated intracellular calcium release by Fluo-3 AM dye based FLIPR assay. It counts as functional, cell-based.
For data set [7] the target is unchanged. Briefly: Agonist activity at PAR2 in human HT-29 cells assessed as increase in intracellular calcium release incubated for 30 mins measured for 60 secs by Fluo-3 AM dye based FLIPR assay relative to 2f-LIGRLO-NH2. It counts as functional, cell-based.
The test system of the next data set is Rattus norvegicus. Briefly: Antiinflammatory activity in Wistar rat acute paw edema model assessed as inhibition of 2f-LIGRLO-NH2-induced […] swelling at 10 mg/kg administered via oral gavage for 2 hrs followed by 2f-LIGRLO-NH2 addition measured up to 3 hrs. It counts as functional, organism-based.
The nature of data set [8]: Solubility of compound. It counts as physicochemical.
Data set [9] can be described thus: AUC (0 to 6 hrs) in Wistar rat at 10 mg/kg, po administered via gavage. It counts as ADME, organism-based. More on the design: time < 6 hr, dose 10 mg/kg, route oral. To be noted: in vivo.
Data set [10] can be described thus: Time at which maximum plasma concentration stays above 2 times in vitro PAR2 IC50 in Wistar rat at 10 mg/kg, po administered via gavage. It counts as ADME, organism-based. To be noted: in vivo.
A short description of data set [11]: Half life in Wistar rat plasma at 10 uM by LC/MS/MS analysis. It counts as ADME, cell-free.

Each structure is given as a SMILES string. The source made the active and inactive calls. The calls are words filed in the database; no cut-off is given here. Where a SMILES comes first, the peptide text is derived from it.

By inhibition is commonly meant how much of the control response was suppressed. Broadly, the EC50 is the concentration needed to bring the measured effect to its halfway point. In general, AUC(0-t) refers to exposure summed from dosing to a finite time, without extrapolation to infinity. Read a low AUC(0-t) as low exposure.

As to `CC(C)(C)[C@H](NC(=O)[C@H](CC1CCCCC1)NC(=O)c1ccno1)C(=O)N1CCC2(C=Cc3ccccc32)CC1`, in [1], the inhibition was in the range of 10 to 16%.

As to `CC(C)(NC(=O)[C@H](CC1CCCCC1)NC(=O)c1ccno1)C(=O)N1CCC2(C=Cc3ccccc32)CC1`, the inhibition in data set [1] was 10 to 16%. In the case of `CC[C@H](C)[C@H](NC(=O)[C@H](CC1CCCCC1)NC(=O)c1ccno1)C(=O)N1CCC2(CCc3ccccc3O2)CC1`, the inhibition in data set [1] stood at 77%. Also, in [2] (read-out: IC50), the IC50 worked out at 1900 nM. Consider `CC[C@H](C)[C@H](NC(=O)[C@H](CC1CCCCC1)NC(=O)c1ccon1)C(=O)N1CCC2(C=Cc3ccccc32)CC1`, for which, in data set [1], the inhibition turned out to be 27%. Moreover, the Activity in [3] was found to be 21%. In the case of `CC[C@H](C)[C@H](NC(=O)[C@H](CC1CCCCC1)NC(=O)c1ccno1)C(=O)N1CCC(O)(c2ccc(C(F)(F)F)cc2C(F)(F)F)CC1`, the inhibition in data set [1] was in the range of 43 to 69%. `CC[C@H](C)[C@H](NC(=O)[C@H](CC1CCCCC1)NC(=O)c1cc(N)n[nH]1)C(=O)N1CCC2(C=Cc3ccccc32)CC1`: in [3], the Activity came out at 26%. For `O=C(N[C@@H](CC1CCCCC1)C(=O)N[C@@H](Cc1cnc[nH]1)C(=O)N1CCC2(C=Cc3ccccc32)CC1)c1ccno1`, in data set [3], the Activity was in the range of 53 to 81%. `CC[C@H](C)[C@H](NC(=O)[C@H](CC1CCCCC1)NC(=O)c1ccno1)C(=O)N1CCC(c2ccc(OC)cc2)CC1`: in data set [1], the inhibition was 43 to 69%.

For the compound `CO[C@H](C)[C@H](NC(=O)[C@H](CC1CCCCC1)NC(=O)c1ccno1)C(=O)N1CCC2(C=Cc3ccccc32)CC1`, the Activity in [3] was in the range of 53 to 81%. On to `CC[C@H](C)[C@H](NC(=O)[C@H](CC1CCCCC1)NC(=O)c1ccno1)C(=O)N1CCC2(C=Cc3ccccc32)CC1`, for which the remaining at 3 h, 10 µM in [4] is more than 75%. For the same compound, the half-life at 10 µM in data set [5] came to 60 min. Also, the inhibition in data set [1] was 92%. The figures for the IC50 in data set [2] (read-out: IC50), in data set [2] (read-out: pIC50 (converted)) and in data set [6] were 1100 to 1700 nM, 1580 nM and 3600 nM, respectively. `CC[C@H](C)[C@H](NC(=O)[C@H](CC1CCCCC1)NC(=O)c1nc[nH]n1)C(=O)N1CCC2(C=Cc3ccccc32)CC1`: the inhibition in [1] came out at 43%. Take `CC[C@H](C)[C@H](NC(=O)[C@H](CC1CCCCC1)NC(=O)c1ccno1)C(=O)N1CCC2(CC1)CC(=O)c1ccccc1O2`: the Activity in [3] is 62 to 70%. The EC50 in [7] lay in the range of 700 to 1800 nM. In the case of `CC[C@H](C)[C@H](NC(=O)[C@H](CC1CCCCC1)NC(=O)c1cc(N)no1)C(=O)N1CCC2(C=Cc3ccccc32)CC1`, the remaining at 3 h, 10 µM in data set [4] was more than 75%. Besides, the half-life at 10 µM in data set [5] worked out at 15 min. Also, the inhibition in [1] was 91%. In addition, in the data set on Rattus norvegicus, the inhibition entry is “Active”. The solubility result in [8] is “Soluble”. As to `C[C@@H](O)[C@H](NC(=O)[C@H](CC1CCCCC1)NC(=O)c1ccno1)C(=O)N1CCC2(C=Cc3ccccc32)CC1`, the Activity in [3] was 53 to 81%. For the compound `CC[C@H](C)[C@H](NC(=O)[C@H](CC1CCCCC1)NC(=O)c1ccno1)C(=O)N1CCC(c2ccc(Cl)cc2)CC1`, the inhibition in data set [1] was 43 to 69%.

Take `CC[C@H](C)[C@H](NC(=O)[C@H](CC1CCCCC1)NC(=O)c1c[nH]cn1)C(=O)N1CCC2(C=Cc3ccccc32)CC1`: in data set [1], the inhibition was determined as 53%. Also, the IC50 in data set [2] (read-out: IC50) turned out to be 3100 nM. In addition, the solubility result in [8] was “Soluble”. `CC[C@H](C)[C@H](NC(=O)[C@H](CC1CCCCC1)NC(=O)c1ccno1)C(=O)N1CCN(Cc2ccc(F)cc2)CC1`: the Activity in [3] lay in the range of 30 to 50%.

In the case of `CC[C@H](C)[C@H](NC(=O)[C@H](CC1CCCCC1)NC(=O)c1ccno1)C(=O)N1CCC(c2ccccc2)CC1`, the remaining at 3 h, 10 µM in [4] was more than 75%. Moreover, in [5], the half-life at 10 µM turned out to be 30 min. The inhibition in data set [1] was 93%. The AUC(0-t) at 6 h in data set [9] is 1960 ng·h/mL. This compound had a Time in data set [10] of 2 to 3 h. Besides, in the data set on Rattus norvegicus, the inhibition entry was “Active”. In the case of `CC[C@H](C)[C@H](NC(=O)[C@H](CC1CCCCC1)NC(=O)c1ccno1)C(=O)N1CCN(c2ccccc2)CC1`, the Activity in data set [3] lay in the range of 30 to 50%. On the same count and under the same terms, the result for `CC[C@H](C)[C@H](NC(=O)[C@H](CC1CCCCC1)NC(=O)c1ccno1)C(=O)N1CCC(NC(C)=O)(c2ccccc2)CC1` reads 81%. With `CC[C@H](C)[C@H](NC(=O)[C@H](CC1CCCCC1)NC(=O)c1cscn1)C(=O)N1CCC2(C=Cc3ccccc32)CC1`, the inhibition in data set [1] came to 70%.

Take `CC[C@H](C)[C@H](NC(=O)[C@H](CC1CCCCC1)NC(=O)c1ccno1)C(=O)N1CCC2(CC1)c1ccccc1C1OC12` (some centres undefined): the Activity in data set [3] turned out to be 65%. In addition, in [7], the EC50 was 700 to 1800 nM. On to `CC[C@H](C)[C@H](NC(=O)[C@H](CC(C)C)NC(=O)[C@@H](N)CO)C(=O)NCC(=O)N[C@@H](CCCNC(=N)N)C(=O)N[C@@H](CC(C)C)C(N)=O` (H-SLIGRL-NH2), for which the half-life at 10 µM in data set [5] came out at 15 min; in data set [11], 20 min. As for `CC[C@H](C)[C@H](NC(=O)[C@H](CC1CCCCC1)NC(=O)c1cc(CN)no1)C(=O)N1CCC2(C=Cc3ccccc32)CC1`, the inhibition in data set [1] turned out to be 62%. The IC50 was 8900 nM in data set [2] (read-out: IC50) and 10000 nM in [2] (read-out: pIC50 (converted)). In data set [8], the solubility entry was “Soluble”. Regarding `CC[C@H](C)[C@H](NC(=O)[C@H](CC1CCCCC1)NC(=O)c1ccno1)C(=O)N1CCC(c2ccccc2C(F)(F)F)CC1`, the inhibition in data set [1] fell in the range of 43 to 69%.

As for `O=C(N[C@@H](CC1CCCCC1)C(=O)N[C@@H](CC1CCCCC1)C(=O)N1CCC2(C=Cc3ccccc32)CC1)c1ccno1`, the inhibition in data set [1] lay within 10 to 16%. For the compound `CC[C@H](C)[C@H](NC(=O)[C@H](CC1CCCCC1)NC(=O)c1ccno1)C(=O)N1CCc2cc(OC)c(OC)cc2C1`, the Activity in data set [3] amounted to 65%.

Take `CC[C@H](C)[C@H](NC(=O)[C@H](CC1CCCCC1)NC(=O)c1ccno1)C(=O)N1CCC(c2cc(OC)ccc2OC)CC1`: the inhibition in data set [1] is 43 to 69%. Regarding `CC[C@H](C)[C@H](NC(=O)[C@H](CC1CCCCC1)NC(=O)c1ccno1)C(=O)N1CCC2(CC1)OC(=O)c1ccccc12`, in [3], the Activity fell in the range of 62 to 70%. For the same compound, the EC50 in [7] lay in the range of 700 to 1800 nM. For `NCC[C@H](NC(=O)[C@H](CC1CCCCC1)NC(=O)c1ccno1)C(=O)N1CCC2(C=Cc3ccccc32)CC1`, the Activity in data set [3] came to 11%. For the compound `CC[C@H](C)[C@H](NC(=O)[C@H](CC1CCCCC1)NC(=O)c1ccno1)C(=O)N1CC[C@H]2CCCC[C@H]2[C@H]1C(=O)NC(C)(C)C`, the inhibition in [1] was 38%.

Take `NC(=O)C[C@H](NC(=O)[C@H](CC1CCCCC1)NC(=O)c1ccno1)C(=O)N1CCC2(C=Cc3ccccc32)CC1`: in data set [3], the Activity was 53 to 81%. In the case of `CC[C@H](C)[C@H](NC(=O)[C@H](CC1CCCCC1)NC(=O)c1ccno1)C(=O)N1CCCC[C@H]1C(=O)NC(C)(C)C`, the inhibition in data set [1] was 64%. On to `CC[C@H](C)[C@H](NC(=O)[C@H](CC1CCCCC1)NC(=O)c1ccno1)C(=O)N1CCN(c2ccc(F)cc2)CC1`, for which the Activity in [3] fell in the range of 30 to 50%.
